From US7704995B2 (Exelixis, Inc., priority 2003, dated 2010)

Biological target: T1, Chk1 (Homo sapiens, UniProt O14757)
T1 construct: purchased Upstate Biotechnology
T1 sequence (O14757 1-476): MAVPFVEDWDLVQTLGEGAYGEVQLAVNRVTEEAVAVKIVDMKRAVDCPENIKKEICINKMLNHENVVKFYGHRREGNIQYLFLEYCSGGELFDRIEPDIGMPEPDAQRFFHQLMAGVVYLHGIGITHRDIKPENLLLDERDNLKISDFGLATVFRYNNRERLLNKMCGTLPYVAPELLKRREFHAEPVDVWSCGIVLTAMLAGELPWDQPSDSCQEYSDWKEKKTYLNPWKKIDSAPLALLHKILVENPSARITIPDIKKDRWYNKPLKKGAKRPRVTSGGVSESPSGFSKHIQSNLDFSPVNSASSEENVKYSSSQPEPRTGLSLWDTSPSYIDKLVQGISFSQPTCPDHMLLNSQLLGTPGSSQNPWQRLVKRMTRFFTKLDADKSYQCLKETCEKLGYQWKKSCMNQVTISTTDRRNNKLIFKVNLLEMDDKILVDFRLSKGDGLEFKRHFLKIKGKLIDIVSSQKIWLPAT
Experiment: Chk1 kinase assay: incorporation of γ-33P ATP into immobilized myelin basic protein
Format: biochemical
Conditions: read-out: Chk1 IC50
Summary of the method: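 Enzyme activity is measured as γ-33P transfer from ATP onto immobilized MBP over 1 h at room temperature, with Chk1 at 10 nM/10 μM unlabeled ATP and Chk2 at 20 nM/30 μM unlabeled ATP. Compounds are tested in 1% DMSO.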

Row | Compound | IC50 [nM]
1 | CNC(=O)c1nc(-c2cccc(NC(=O)c3cccc(Oc4ccccc4)c3)c2)cnc1N [Example 156, 3-amino-N-methyl-6-[3-({[3-(phenyloxy)phenyl]carbonyl}amino)phenyl]pyrazine-2-carboxamide] | 50 to 1000
2 | CNC(=O)c1nc(-c2cccc(NC(=O)C(c3ccccc3)c3ccccc3)c2)cnc1N [Example 157, 3-amino-6-{3-[(diphenylacetyl)amino]phenyl}-N-methylpyrazine-2-carboxamide] | 50 to 1000
3 | CNC(=O)c1nc(-c2cccc(NC(=O)Cc3ccccc3)c2)cnc1N [Example 158, 3-amino-N-methyl-6-{3-[(phenylacetyl)amino]phenyl}pyrazine-2-carboxamide] | 50 to 1000
4 | CNC(=O)c1nc(-c2cccc(NC(=O)CCc3ccccc3)c2)cnc1N [Example 159, 3-amino-N-methyl-6-{3-[(3-phenylpropanoyl)amino]phenyl}pyrazine-2-carboxamide] | 50 to 1000
5 | CNC(=O)c1nc(-c2cccc(C(=O)N[C@@H]3CCCc4ccccc43)c2)cnc1N [Example 160, 3-amino-N-methyl-6-(3-{[(1R)-1,2,3,4-tetrahydronaphthalen-1-ylamino]carbonyl}phenyl)pyrazine-2-carboxamide] | 1000 to 10000
6 | CNC(=O)c1nc(-c2cccc(C(=O)N[C@H]3CCCc4ccccc43)c2)cnc1N [Example 161, 3-amino-N-methyl-6-(3-{[(1S)-1,2,3,4-tetrahydronaphthalen-1-ylamino]carbonyl}phenyl)pyrazine-2-carboxamide] | 50 to 1000
7 | CNC(=O)c1nc(-c2cccc(C(=O)NCc3cc(OC)c(OC)c(OC)c3)c2)cnc1N [Example 162, 3-amino-N-methyl-6-{3-[({[3,4,5-tris(methyloxy)phenyl]methyl}amino)carbonyl]phenyl}pyrazine-2-carboxamide] | 50 to 1000
8 | CNC(=O)c1nc(-c2cccc(C(=O)N[C@@H]3CCC[C@H]3OCc3ccccc3)c2)cnc1N [Example 163, 3-amino-N-methyl-6-{3-[({(1R,2R)-2-[(phenylmethyl)oxy]cyclopentyl}amino)carbonyl]phenyl}pyrazine-2-carboxamide] | 1000 to 10000
9 | CNC(=O)c1nc(-c2cccc(C(=O)N[C@H]3CCC[C@@H]3OCc3ccccc3)c2)cnc1N [Example 164, 3-amino-N-methyl-6-{3-[({(1S,2S)-2-[(phenylmethyl)oxy]cyclopentyl}amino)carbonyl]phenyl}pyrazine-2-carboxamide] | 50 to 1000
10 | CNC(=O)c1nc(-c2cccc(C#N)c2)cnc1N [Example 165, 3-amino-6-(3-cyanophenyl)-N-methylpyrazine-2-carboxamide] | 1000 to 10000
11 | CNC(=O)c1nc(-c2cccc(NC(=O)C3CCCC3)c2)cnc1N [Example 166, 3-amino-6-{3-[(cyclopentylcarbonyl)amino]phenyl}-N-methylpyrazine-2-carboxamide] | 50 to 1000
12 | CNC(=O)c1nc(-c2cccc(NC(=O)c3ccc(C#N)cc3)c2)cnc1N [Example 167, 3-amino-6-(3-{[(4-cyanophenyl)carbonyl]amino}phenyl)-N-methylpyrazine-2-carboxamide] | 50 to 1000
13 | CNC(=O)c1nc(-c2cccc(NC(=O)NCc3ccccc3)c2)cnc1N [Example 168, 3-amino-N-methyl-6-[3-({[(phenylmethyl)amino]carbonyl}amino)phenyl]pyrazine-2-carboxamide] | 50 to 1000
14 | CNC(=O)c1nc(-c2cccc(C(=O)NCc3ccc4ccccc4c3)c2)cnc1N [Example 169, 3-amino-N-methyl-6-(3-{[(naphthalen-2-ylmethyl)amino]carbonyl}phenyl)pyrazine-2-carboxamide] | 50 to 1000
15 | CNC(=O)c1nc(-c2cccc(C(=O)NCC3CCCO3)c2)cnc1N (stereo not drawn) [Example 170, 3-amino-N-methyl-6-(3-{[(tetrahydrofuran-2-ylmethyl)amino]carbonyl}phenyl)pyrazine-2-carboxamide] | 1000 to 10000
16 | CNC(=O)c1nc(-c2cccc(C(=O)NCc3c(F)cccc3Cl)c2)cnc1N [Example 171, 3-amino-6-[3-({[(2-chloro-6-fluorophenyl)methyl]amino}carbonyl)phenyl]-N-methylpyrazine-2-carboxamide] | 50 to 1000
17 | CNC(=O)c1nc(-c2cccc(C(=O)NCc3cc(F)cc(C(F)(F)F)c3)c2)cnc1N [Example 172, 3-amino-6-{3-[({[3-fluoro-5-(trifluoromethyl)phenyl]methyl}amino)carbonyl]phenyl}-N-methylpyrazine-2-carboxamide] | 50 to 1000
18 | CNC(=O)c1nc(-c2cccc(C(=O)NCCc3cc(OC)cc(OC)c3)c2)cnc1N [Example 173, 3-amino-6-{3-[({2-[3,5-bis(methyloxy)phenyl]ethyl}amino)carbonyl]phenyl}-N-methylpyrazine-2-carboxamide] | 1000 to 10000

Row | Compound | IC50 [nM]
19 | CNC(=O)c1nc(-c2cccc(OCCc3ccccc3)c2)cnc1N [Example 174, 3-amino-N-methyl-6-{3-[(2-phenylethyl)oxy]phenyl}pyrazine-2-carboxamide] | 50 to 1000
20 | CNC(=O)c1nc(-c2cccc(OCCN3CCC(C)CC3)c2)cnc1N [Example 175, 3-amino-N-methyl-6-(3-{[2-(4-methylpiperidin-1-yl)ethyl]oxy}phenyl)pyrazine-2-carboxamide] | 1000 to 10000
21 | CNC(=O)c1nc(-c2cccc(OCCN3CCC(CCO)CC3)c2)cnc1N [Example 176, 3-amino-6-[3-({2-[4-(2-hydroxyethyl)piperidin-1-yl]ethyl}oxy)phenyl]-N-methylpyrazine-2-carboxamide] | 1000 to 10000
22 | CNC(=O)c1nc(-c2cccc(OCCN3CCC(O)C3)c2)cnc1N (stereo not drawn) [Example 177, 3-amino-6-(3-{[2-(3-hydroxypyrrolidin-1-yl)ethyl]oxy}phenyl)-N-methylpyrazine-2-carboxamide] | 1000 to 10000
23 | CCN(CCOc1cccc(-c2cnc(N)c(C(=O)NC)n2)c1)Cc1ccccc1 [Example 178, 3-amino-6-[3-({2-[ethyl(phenylmethyl)amino]ethyl}oxy)phenyl]-N-methylpyrazine-2-carboxamide] | 50 to 1000
24 | CCN(CC)CCOc1cccc(-c2cnc(N)c(C(=O)NC)n2)c1 [Example 179, 3-amino-6-(3-{[2-(diethylamino)ethyl]oxy}phenyl)-N-methylpyrazine-2-carboxamide] | 50 to 1000
25 | CNC(=O)c1nc(-c2cccc(C(=O)NCc3ccccc3-c3ccccc3)c2)cnc1N [Example 180, 3-amino-6-(3-{[(biphenyl-2-ylmethyl)amino]carbonyl}phenyl)-N-methylpyrazine-2-carboxamide] | < 50
26 | CNC(=O)c1nc(-c2cccc(OCCN3CCN(c4ccccc4)CC3)c2)cnc1N [Example 181, 3-amino-N-methyl-6-(3-{[2-(4-phenylpiperazin-1-yl)ethyl]oxy}phenyl)pyrazine-2-carboxamide] | 50 to 1000
27 | CNC(=O)c1nc(-c2cccc(C(=O)NCc3ccc(-c4ccccc4)cc3)c2)cnc1N [Example 182, 3-amino-6-(3-{[(biphenyl-4-ylmethyl)amino]carbonyl}phenyl)-N-methylpyrazine-2-carboxamide] | < 50
28 | CNC(=O)c1nc(-c2cccc(OCCN(C)Cc3ccccc3)c2)cnc1N [Example 183, 3-amino-N-methyl-6-[3-({2-[methyl(phenylmethyl)amino]ethyl}oxy)phenyl]pyrazine-2-carboxamide] | 50 to 1000
29 | CNC(=O)c1nc(-c2cccc(C(=O)NCc3ccc(Oc4ccccc4)cc3)c2)cnc1N [Example 184, 3-amino-N-methyl-6-{3-[({[4-(phenyloxy)phenyl]methyl}amino)carbonyl]phenyl}pyrazine-2-carboxamide] | 50 to 1000
30 | CNC(=O)c1nc(-c2cccc(OCCN3CCOCC3)c2)cnc1N [Example 185, 3-amino-N-methyl-6-{3-[(2-morpholin-4-ylethyl)oxy]phenyl}pyrazine-2-carboxamide] | 1000 to 10000
31 | CCCN(CCOc1cccc(-c2cnc(N)c(C(=O)NC)n2)c1)CC1CC1 [Example 186, 3-amino-6-[3-({2-[(cyclopropylmethyl)(propyl)amino]ethyl}oxy)phenyl]-N-methylpyrazine-2-carboxamide] | 50 to 1000
32 | CNC(=O)c1nc(-c2cccc(OCCN3CCC(Cc4ccccc4)CC3)c2)cnc1N [Example 187, 3-amino-N-methyl-6-[3-({2-[4-(phenylmethyl)piperidin-1-yl]ethyl}oxy)phenyl]pyrazine-2-carboxamide] | 50 to 1000
33 | CNC(=O)c1nc(-c2cccc(OCCN3CCCCC3)c2)cnc1N [Example 188, 3-amino-N-methyl-6-{3-[(2-piperidin-1-ylethyl)oxy]phenyl}pyrazine-2-carboxamide] | 50 to 1000
34 | CNC(=O)c1nc(-c2cccc(C(=O)NCc3cccc(Oc4ccccc4)c3)c2)cnc1N [Example 189, 3-amino-N-methyl-6-{3-[({[3-(phenyloxy)phenyl]methyl}amino)carbonyl]phenyl}pyrazine-2-carboxamide] | 50 to 1000
35 | CCN1CCN(CCOc2cccc(-c3cnc(N)c(C(=O)NC)n3)c2)CC1 [Example 190, 3-amino-6-(3-{[2-(4-ethylpiperazin-1-yl)ethyl]oxy}phenyl)-N-methylpyrazine-2-carboxamide] | 50 to 1000
36 | CNC(=O)c1nc(-c2cccc(OCCN3CCCC3)c2)cnc1N [Example 191, 3-amino-N-methyl-6-{3-[(2-pyrrolidin-1-ylethyl)oxy]phenyl}pyrazine-2-carboxamide] | 50 to 1000
